Results as given in US12084416B2, “Substituted sulfonylurea derivatives” (Zydus Lifesciences Limited, priority 2019, dated 2024).

Test system: IL-1β
Test: In-vitro IL-1β inhibition assay in PMA-differentiated, LPS-primed, ATP-stimulated THP1 cells
Format: cell-based
Conditions: Homo sapiens, THP-1, read-out: IC50 (nM), invitro IL-1β inhibitory activity
Method: THP1 monocytes were differentiated with PMA (100 ng/mL) and incubated at 37 deg C. for 20 hrs in presence of 5% CO2. 2×10^5 differentiated cells were plated per well of 96 well tissue culture plates. The cells were primed using 500 ng/mL Lipopolysaccharide and incubating for 4 h under the same condition. The cells were then treated with various concentrations of the compounds for 30 min followed by treatment with 5 mM ATP for 1 hr. The supernatants were collected and analyzed by IL-1b (Mabtech Cat #3415-1H-20) or TNF-α (Mabtech; Cat #3510-1H-20) detection kit. The data were analyzed using GraphPad Prism V7.0. Dose Response Curve (DRC) was constructed to determine the IC50 value by fitting percentage […] data to the GraphPad Prism using nonlinear regression analysis.

**Q.** With `CN1CCC[C@@]1(C)/C=C/S(=O)(=O)NC(=O)Nc1cc2c(c3c1CCC3)CCC2` [Example 153, (S,E)-2-(1,2-dimethylpyrrolidin-2-yl)-N-((1,2,3,6,7,8-hexahydro-as-indacen-4-yl)carbamoyl)ethene-1-sulfonamide] as the compound, how does the IC50 read?
**A.** Its IC50 is 32 nM.

**Q.** How did the IC50 turn out when `CN1CCC[C@@]1(C)/C=C/S(=O)(=O)NC(=O)Nc1c2c(cc3c1CCC3)CCC2` [Example 144, sodium(S,E)-((2-(1,2-dimethylpyrrolidin-2-yl)vinyl)sulfonyl)((1,2,3,5,6,7-hexahydro-s-indacen-4-yl)carbamoyl)amide] was run?
**A.** The IC50 was 8.6 nM.

**Q.** How did the IC50 turn out when `O=C(Nc1c2c(cc3c1CCC3)CCC2)NS(=O)(=O)/C=C/[C@H]1CCCN1C1CCSCC1` [Example 139, Sodium(R,E)-((1,2,3,5,6,7-hexahydro-s-indacen-4-yl)carbamoyl)((2-(1-(tetrahydro-2H-thiopyran-4-yl)pyrrolidin-2-yl)vinyl)sulfonyl)amide] was run?
**A.** The IC50 was 21 nM.

**Q.** For `CC[C@@]1(/C=C/S(=O)(=O)NC(=O)Nc2c3c(cc4c2CCC4)CCC3)CCCN1C(=O)OC(C)(C)C` [Example 149, tert-butyl(S,E)-2-ethyl-2-(2-(N-((1,2,3,5,6,7-hexahydro-s-indacen-4-yl)carbamoyl)sulfamoyl)vinyl)pyrrolidine-1-carboxylate], which IC50 is on record?
**A.** The IC50 was 11 nM.

**Q.** With `CC(C)(C)OC(=O)N1CCC1(C)/C=C/S(=O)(=O)NC(=O)Nc1c2c(cc3c1CCC3)CCC2` (stereo not shown) [Example 147, tert-butyl(E)-2-(2-(N-((1,2,3,5,6,7-hexahydro-s-indacen-4-yl)carbamoyl)sulfamoyl)vinyl)-2-methylazetidine-1-carboxylate] as the compound, how does the IC50 read?
**A.** The IC50 was 11 nM.

Same assay, conditions: Homo sapiens, THP-1; THP1 monocytes differentiated with PMA, primed with 500 ng/mL LPS, compound 30 min, 5 mM ATP 1 hr; IL-1β in supernatant; read-out: IC50 (nM), invitro IL-1β inhibitory activity

**Q.** `CC(C)(C)OC(=O)N1CCC[C@@]1(C)/C=C/S(=O)(=O)NC(=O)Nc1c2c(cc3c1CCC3)CCC2` [Example 111, tert-butyl(S,E)-2-(2-(N-((1,2,3,5,6,7-hexahydro-s-indacen-4-yl)carbamoyl)sulfamoyl)vinyl)-2-methylpyrrolidine-1-carboxylate] was tested. Which IC50 did it give?
**A.** Its IC50 is 4.3 nM.

**Q.** Which IC50 does the source give for `O=C(Nc1c2c(cc3c1CCC3)CCC2)NS(=O)(=O)/C=C/[C@@H]1CCCN1S(=O)(=O)c1cccnc1` [Example 63, (S,E)-N-((1,2,3,5,6,7-hexahydro-s-indacen-4-yl)carbamoyl)-2-(1-(pyridin-3-ylsulfonyl)-pyrrolidin-2-yl)ethenesulfonamide] here?
**A.** Its IC50 is 8 nM.

**Q.** For `C=CCN1CCC[C@H]1/C=C/S(=O)(=O)NC(=O)Nc1c2c(cc3c1CCC3)CCC2` [Example 127, (S,E)-2-(1-allylpyrrolidin-2-yl)-N-((1,2,3,5,6,7-hexahydro-s-indacen-4-yl)carbamoyl)ethene-1-sulfonamide], which IC50 is on record?
**A.** Its IC50 is 5.6 nM.

**Q.** Which IC50 does the source give for `O=C(Nc1c2c(cc3c1CCC3)CCC2)NS(=O)(=O)/C=C/C1CCCCN1` (stereo not shown) [Example 100, (E)-N-((1,2,3,5,6,7-hexahydro-s-indacen-4-yl)carbamoyl)-2-(piperidin-2-yl)ethene-1-sulfonamide] here?
**A.** The IC50 was 70 nM.

**Q.** How did the IC50 turn out when `O=C(Nc1c2c(cc3c1CCC3)CCC2)NS(=O)(=O)/C=C/[C@H]1CCCN1C(=O)c1cnccn1` [Example 14, (R,E)-N-((1,2,3,5,6,7-hexahydro-s-indacen-4-yl)carbamoyl)-2-(1-(pyrazine-2-carbonyl)pyrrolidin-2-yl)ethenesulfonamide] was run?
**A.** Its IC50 is 17 nM.

**Q.** With `CC(C)(C)OC(=O)N1CC2CC(N3CCC[C@@H]3/C=C/S(=O)(=O)NC(=O)Nc3c4c(cc5c3CCC5)CCC4)CC2C1` (stereo partly drawn) [Example 131, tert-butyl 5-((R)-2-((E)-2-(N-((1,2,3,5,6,7-hexahydro-s-indacen-4-yl)carbamoyl)sulfamoyl)vinyl)pyrrolidin-1-yl)hexahydrocyclopenta[c]pyrrole-2 (1H)-carboxylate] as the compound, how does the IC50 read?
**A.** Its IC50 is 16 nM.

**Q.** How did the IC50 turn out when `C[C@@]1(/C=C/S(=O)(=O)NC(=O)Nc2c3c(cc4c2CCC4)CCC3)CCCN1` [Example 105, (S,E)-N-((1,2,3,5,6,7-hexahydro-s-indacen-4-yl)carbamoyl)-2-(2-methylpyrrolidin-2-yl)ethene-1-sulfonamide] was run?
**A.** Its IC50 is 61 nM.

**Q.** For `O=C(Nc1c2c(cc3c1CCC3)CCC2)NS(=O)(=O)/C=C/[C@@H]1CCCN1S(=O)(=O)Cc1ccccc1` [Example 91, (S,E)-2-(1-(benzylsulfonyl)pyrrolidin-2-yl)-N-((1,2,3,5,6,7-hexahydro-s-indacen-4-yl)carbamoyl)ethenesulfonamide], which IC50 is on record?
**A.** The IC50 was 2.9 nM.

**Q.** For `CC(=O)N1CCC1/C=C/S(=O)(=O)NC(=O)Nc1c2c(cc3c1CCC3)CCC2` (stereo not shown) [Example 125, (E)-2-(1-acetylazetidin-2-yl)-N-((1,2,3,5,6,7-hexahydro-s-indacen-4-yl)carbamoyl)ethene-1-sulfonamide], which IC50 is on record?
**A.** The IC50 was 16.4 nM.

**Q.** Which IC50 does the source give for `O=C(Nc1c2c(cc3c1CCC3)CCC2)NS(=O)(=O)/C=C/[C@@H]1CCCN1S(=O)(=O)c1ccc(Cl)s1` [Example 90, (S,E)-2-(1-((5-chlorothiophen-2-yl)sulfonyl)pyrrolidin-2-yl)-N-((1,2,3,5,6,7-hexahydro-s-indacen-4-yl)carbamoyl)ethenesulfonamide] here?
**A.** Its IC50 is 16 nM.

**Q.** `CS(=O)(=O)N1CCCC(/C=C/S(=O)(=O)NC(=O)Nc2c3c(cc4c2CCC4)CCC3)C1` (stereo not shown) [Example 84, (E)-N-((1,2,3,5,6,7-hexahydro-s-indacen-4-yl)carbamoyl)-2-(1-(methylsulfonyl)piperidin-3-yl)ethenesulfonamide] was tested. Which IC50 did it give?
**A.** Its IC50 is 8.5 nM.

**Q.** `CS(=O)(=O)CCCN1CCC[C@@H]1/C=C/S(=O)(=O)NC(=O)Nc1c2c(cc3c1CCC3)CCC2` [Example 23, (R,E)-N-((1,2,3,5,6,7-hexahydro-s-indacen-4-yl)carbamoyl)-2-(1-(3-(methylsulfonyl)propyl)pyrrolidin-2-yl)ethenesulfonamide] was tested. Which IC50 did it give?
**A.** Its IC50 is 14 nM.

**Q.** For `CCS(=O)(=O)N1CCC[C@@H]1/C=C/S(=O)(=O)NC(=O)Nc1c2c(cc3c1CCC3)CCC2` [Example 21, (R,E)-2-(1-(ethylsulfonyl)pyrrolidin-2-yl)-N-((1,2,3,5,6,7-hexahydro-s-indacen-4-yl)carbamoyl)ethene-1-sulfonamide], which IC50 is on record?
**A.** Its IC50 is 2.4 nM.

**Q.** How did the IC50 turn out when `CC(=O)N1CCC[C@@H]1/C=C/S(=O)(=O)NC(=O)Nc1c2c(cc3c1CCC3)CCC2` [Example 8, (R,E)-2-(1-acetylpyrrolidin-2-yl)-N-((1,2,3,5,6,7-hexahydro-s-indacen-4-yl)carbamoyl)-ethene-1-sulfonamide] was run?
**A.** Its IC50 is 10.7 nM.

**Q.** `O=C(Nc1c2c(cc3c1CCC3)CCC2)NS(=O)(=O)/C=C/C1CCOCC1` [Example 71, (E)-N-((1,2,3,5,6,7-hexahydro-s-indacen-4-yl)carbamoyl)-2-(tetrahydro-2H-pyran-4-yl)ethenesulfonamide] was tested. Which IC50 did it give?
**A.** The IC50 was 87 nM.

**Q.** For `CC(C)(C)OC(=O)N1CCC[C@@H]1/C=C/S(=O)(=O)NC(=O)Nc1c2c(cc3c1CCC3)CCC2` [Example 10, tert-butyl (R,E)-2-(2-(N-((1,2,3,5,6,7-hexahydro-s-indacen-4-yl)carbamoyl)sulfamoyl)-vinyl)pyrrolidine-1-carboxylate], which IC50 is on record?
**A.** The IC50 was 64 nM.

**Q.** With `C[C@@]1(/C=C/S(=O)(=O)NC(=O)Nc2c3c(cc4c2CCC4)CCC3)CCCN1S(=O)(=O)C1CC1` [Example 129, (S,E)-2-(1-(cyclopropylsulfonyl)-2-methylpyrrolidin-2-yl)-N-((1,2,3,5,6,7-hexahydro-s-indacen-4-yl)carbamoyl)ethene-1-sulfonamide] as the compound, how does the IC50 read?
**A.** The IC50 was 5.9 nM.

**Q.** How did the IC50 turn out when `O=C(Nc1c2c(cc3c1CCC3)CCC2)NS(=O)(=O)/C=C/[C@H]1CCCN1S(=O)(=O)c1cccc(F)c1` [Example 13, (R,E)-2-(1-((3-fluorophenyl)sulfonyl)pyrrolidin-2-yl)-N-((1,2,3,5,6,7-hexahydro-s-indacen-4-yl)carbamoyl)ethenesulfonamide] was run?
**A.** Its IC50 is 9 nM.

Test system: IL-1β
Test: In-vivo LPS and ATP induced IL-1β assay
Conditions: Mus musculus, 2.5 h; Dose 10 mpk, po; female C57 mice; serum IL-1β by ELISA; read-out: % IL-1β inhibition in LPS + ATP challenged C57 mice
Method: All the animal experiments were carried out in female rats and mice, bred in-house. Animals were housed in groups of 6 animals per cage, for a week, in order to habituate them to vivarium conditions (25 f 4° C., 60-65% relative humidity, 12:12 h light:dark cycle, with lights on at 7.30 am). All the animal experiments were carried out according to the internationally valid guidelines following approval by the ‘Zydus Research Center animal ethical committee’.
Female C57 mice (6-8 weeks) received intraperitoneal injection of 50 μg/mouse of lipopolysaccharide (LPS) in PBS. Animals were treated immediately with the test compounds or the vehicle. After 2 h of LPS injection, animals were administered with ATP at 12.5 mg/mouse dissolved in PBS via intraperitoneal route. After 30 minutes of ATP injection, serum was collected for IL-1β estimation by ELISA.

**Q.** With `CN1CCC[C@H]1/C=C/S(=O)(=O)NC(=O)Nc1cc2c(c3c1CCC3)CCC2` [Example 102, (E)-N-((1,2,3,6,7,8-hexahydro-as-indacen-4-yl)carbamoyl)-2-(1-methylpyrrolidin-2-yl)ethene-1-sulfonamide] as the compound, how does the inhibition in vivo at 10 mg/kg read?
**A.** Its inhibition in vivo at 10 mg/kg is 74%.

**Q.** With `CN1CCCCC1/C=C/S(=O)(=O)NC(=O)Nc1c2c(cc3c1CCC3)CCC2` (stereo not shown) [Example 101, (E)-N-((1,2,3,5,6,7-hexahydro-s-indacen-4-yl)carbamoyl)-2-(1-methylpiperidin-2-yl)ethene-1-sulfonamide] as the compound, how does the inhibition in vivo at 10 mg/kg read?
**A.** Its inhibition in vivo at 10 mg/kg is 82%.

**Q.** How did the inhibition in vivo at 10 mg/kg turn out when `O=C(Nc1c2c(cc3c1CCC3)CCC2)NS(=O)(=O)/C=C/[C@H]1CCCN1C1CCSCC1` [Example 40, (R,E)-N-((1,2,3,5,6,7-hexahydro-s-indacen-4-yl)carbamoyl)-2-(1-(tetrahydro-2H-thiopyran-4-yl)pyrrolidin-2-yl)ethene-1-sulfonamide] was run?
**A.** The inhibition in vivo at 10 mg/kg was 86%.

**Q.** How did the inhibition in vivo at 10 mg/kg turn out when `O=C(Nc1c2c(cc3c1CCC3)CCC2)NS(=O)(=O)/C=C/C1CCCO1` (stereo not shown) [Example 73, (E)-N-((1,2,3,5,6,7-hexahydro-s-indacen-4-yl)carbamoyl)-2-(tetrahydrofuran-2-yl)ethene-1-sulfonamide] was run?
**A.** Its inhibition in vivo at 10 mg/kg is 80%.

**Q.** `CC(=O)N1CCC[C@H]1/C=C/S(=O)(=O)NC(=O)Nc1c2c(cc3c1CCC3)CCC2` [Example 69, (S,E)-2-(1-acetylpyrrolidin-2-yl)-N-((1,2,3,5,6,7-hexahydro-s-indacen-4-yl)carbamoyl)-ethenesulfonamide] was tested. Which inhibition in vivo at 10 mg/kg did it give?
**A.** The inhibition in vivo at 10 mg/kg was 84%.
